This is an account of results in ChEMBL document CHEMBL1132968, “Substituent effects on the antibacterial activity of nitrogen-carbon-linked (azolylphenyl)oxazolidinones with expanded activity against the fastidious gram-negative organisms Haemophilus influenzae and Moraxella catarrhalis” (2000).

The ED50 is the midpoint of the dose-response relation.

In brackets after ≈: the same amount, converted by molar mass.

Format in all cases: functional
The subject of experiment [1] is Staphylococcus aureus. As to the kind of experiment: Inhibitory activity against Methicillin-resistant Staphylococcus aureus UC6685.
The subject of experiment [2] is Mus musculus. As to the kind of experiment: Dose required to cure 50% of Staphylococcus aureus infected mice when orally administered;value ranges from 3.1-7.8. To be noted: po.
In experiment [3] the test system is Haemophilus influenzae. The experiment in a line: Inhibitory activity against Haemophilus influenzae UC30063.
The subject of experiment [4] is Mus musculus. The experiment in a line: Dose required to cure 50% of Staphylococcus aureus infected mice in the presence of vancomycin when administered orally. To be noted: po.
The test system of experiment [5] is Staphylococcus epidermidis. The experiment in a line: Inhibitory activity against Methicillin-resistant Staphylococcus epidermidis UC12084.
In experiment [6] the test system is Moraxella catarrhalis. The experiment in a line: Inhibitory activity against Moraxella catarrhalis UC30610.
The test system of experiment [7] is Staphylococcus aureus. The experiment in a line: Inhibitory activity against Methicillin-susceptible Staphylococcus aureus UC9213.
The subject of experiment [8] is Enterococcus faecalis. The experiment in a line: Inhibitory activity against Enterococcus faecalis UC9217.
The subject of experiment [9] is Streptococcus pneumoniae. The experiment in a line: Inhibitory activity against Streptococcus pneumoniae UC9912.
In experiment [10] the test system is Mus musculus. The experiment in a line: Dose required to cure 50% of Staphylococcus aureus infected mice when administered orally. The note with it: po.
Experiment [11] deals with Mus musculus. As to the kind of experiment: Dose required to cure 50% of Staphylococcus aureus infected mice in the presence of eperezolid when administered orally. The note with it: po.
The test system of experiment [12] is Mus musculus. The experiment in a line: Dose required to cure 50% of Staphylococcus aureus infected mice when administered orally;. To be noted: po.
Experiment [13] relates to Mus musculus. The experiment in a line: Dose required to cure 50% of Staphylococcus aureus infected mice in the presence of eperezolid when administered orally; vlue ranges from 1.1-2.8. To be noted: po.
Experiment [14] deals with Mus musculus. The experiment in a line: Dose required to cure 50% of Staphylococcus aureus infected mice when administered orally; the value ranges from 1.1-3.3. The note with it: po.
Experiment [15] deals with Mus musculus. As to the kind of experiment: Dose required to cure 50% of Staphylococcus aureus infected mice in the presence of eperezolid when orally administered; the value ranges from 1.7-4.5. The note with it: po.
Experiment [16] concerns Mus musculus. As to the kind of experiment: Dose required to cure 50% of Staphylococcus aureus infected mice in the presence of eperezolid when orally administered. The note with it: po.
Experiment [17] deals with Mus musculus. The experiment in a line: Dose required to cure 50% of Staphylococcus aureus infected mice when administered orally; value ranges from 5.7-14.5. The note with it: po.
Experiment [18] relates to Mus musculus. As to the kind of experiment: Dose required to cure 50% of Staphylococcus aureus infected mice in the presence of eperezolid when administered orally; value ranges from 2.9-7.1). To be noted: po.

With `CC(=O)NC[C@H]1CN(c2ccc(-n3ccnn3)c(F)c2)C(=O)O1`, the MIC is 1 µg/mL (≈ 3.13 µM) in [1]; 4 µg/mL (≈ 12.5 µM) in experiment [3]; not above 0.5 µg/mL in [5]; 2 µg/mL (≈ 6.26 µM) in experiment [6]; 1 µg/mL (≈ 3.13 µM) in experiment [7]; 1 µg/mL (≈ 3.13 µM) in [8]. The same compound gave an MIC in experiment [9] not above 0.5 µg/mL. Further, the ED50 in experiment [2] was found to be 4.7 mg/kg/day; in experiment [4] it was 2 mg/kg/day.
Take `CC(=O)NC[C@H]1CN(c2ccc(-n3ccc(C(C)=O)c3)c(F)c2)C(=O)O1`: the MIC in [1] turned out to be 1 µg/mL (≈ 2.78 µM); in [3], 16 µg/mL (≈ 44.5 µM); in experiment [5], 0.5 µg/mL (≈ 1.39 µM); in [6], 4 µg/mL (≈ 11.1 µM); in experiment [7], 2 µg/mL (≈ 5.57 µM); in experiment [8], 1 µg/mL (≈ 2.78 µM). The same compound returned an MIC in [9] of 0.25 µg/mL (≈ 0.696 µM). Moreover, the ED50 in experiment [10] worked out at 6.5 mg/kg/day; in [11], 10 mg/kg/day.
`CC(=O)NC[C@H]1CN(c2ccc(-n3cnnc3)c(F)c2)C(=O)O1`: the MIC in [1] was 8 µg/mL (≈ 25.1 µM); in experiment [3] it was more than 16 µg/mL; in experiment [5], 4 µg/mL (≈ 12.5 µM); in experiment [6], 8 µg/mL (≈ 25.1 µM); in experiment [7] it was 16 µg/mL (≈ 50.1 µM); in experiment [8] it was 8 µg/mL (≈ 25.1 µM). The compound further registered an MIC in experiment [9] of 1 µg/mL (≈ 3.13 µM). The values for the median effective dose (ED50) in experiment [12] and in experiment [13] were more than 20 mg/kg/day and 2 mg/kg/day, respectively.
In the case of `CC(=O)NC[C@H]1CN(c2ccc(-n3cc(C#N)nn3)c(F)c2)C(=O)O1`, the MIC is 0.5 µg/mL (≈ 1.45 µM) in [1]; 2 µg/mL (≈ 5.81 µM) in experiment [3]; 0.25 µg/mL (≈ 0.726 µM) in [5]; 2 µg/mL (≈ 5.81 µM) in experiment [6]; 1 µg/mL (≈ 2.9 µM) in [7]; 1 µg/mL (≈ 2.9 µM) in experiment [8]. The same compound returned an MIC in experiment [9] not above 0.125 µg/mL. The results for the median effective dose (ED50) in experiment [14] and in [15] were 1.9 mg/kg/day and 2.8 mg/kg/day, respectively.
As for `CC(=O)NC[C@H]1CN(c2ccc(-n3ccc(/C(C)=N\O)c3)c(F)c2)C(=O)O1`, the MIC was determined as 1 µg/mL (≈ 2.67 µM) in [1]; 8 µg/mL (≈ 21.4 µM) in experiment [3]; 0.5 µg/mL (≈ 1.34 µM) in experiment [5]; 2 µg/mL (≈ 5.34 µM) in experiment [6]; 2 µg/mL (≈ 5.34 µM) in [7]; 1 µg/mL (≈ 2.67 µM) in [8]. For the same compound, the MIC in experiment [9] worked out at 0.25 µg/mL (≈ 0.668 µM). Further, the results for the ED50 in [10] and in [16] were 15 mg/kg/day and 10 mg/kg/day, respectively.
In the case of `CC(=O)NC[C@H]1CN(c2ccc(-n3cc(C(C)=O)nn3)c(F)c2)C(=O)O1`, the MIC in experiment [1] is 1 µg/mL (≈ 2.77 µM); in experiment [3], 8 µg/mL (≈ 22.1 µM); in [5], 1 µg/mL (≈ 2.77 µM); in [6], 8 µg/mL (≈ 22.1 µM); in [7] it was 1 µg/mL (≈ 2.77 µM); in [8], 2 µg/mL (≈ 5.54 µM). The compound also registered an MIC in experiment [9] of 0.5 µg/mL (≈ 1.38 µM). Besides, the ED50 in experiment [17] worked out at 8.8 mg/kg/day; in experiment [18], 4.4 mg/kg/day.
